Measured values published in publication PMC7278359, “Small molecule AX-024 reduces T cell proliferation independently of CD3ϵ/Nck1 interaction, which is governed by a domain swap in the Nck1-SH3.1 domain” (The Journal of Biological Chemistry, 2020).
“Also recorded” adds a separate entry of the source.

Experiments:
[1] = test system: CD3ϵ peptide/Nck1-SH3.1 interaction; assay: SPR competition with CD3ϵ peptide on immobilized Nck1-SH3.1; assay type: binding, human; details: 100 μM AX-024 co-injected with 100 μM CD3ϵ peptide
Procedure: SPR experiments were conducted on a T200 Biacore instrument (GE Healthcare, Uppsala, Sweden) at 20 °C in 10 mM HEPES/NaOH, pH 7.8, 150 mM NaCl, 1 mM TCEP. His10-Avi-TEV-Nck1-SH3.1 (residues 1–61, MM 11,847 Da) was biotinylated and immobilized via streptavidin on the surface of either a CAP or a SA sensor, prepared according to the manufacturer's instructions (GE Healthcare). Streptavidin is immobilized on the CAP sensor by way of double-strand DNA formation. A ssDNA is covalently coupled to the sensor surface, and a complementary DNA strand, covalently linked to streptavidin, is hybridized. To regenerate the surface, the DNA duplex is dissociated by washing with high-ionic strength solution. Thus, after each titration, fresh biotinylated Nck1-SH3.1 was immobilized on the sensor surface. For CD3ϵ peptide-binding experiments, the surface density of the Nck1-SH3.1 domain was ∼250 response units (RU), whereas for binding experiments with AX-024 and APVA variant peptides, the surface density of Nck1-SH3.1 was increased to 1260 RU. […]
Binding of the CD3ϵ-derived peptide […]-NH2 (CD3ϵ residues 173–188; MM 1864.1 Da) or of the APVA variant […]-NH2 (MM 1811.1 Da) to the immobilized Nck1-SH3.1 domain was monitored in a concentration-dependent manner between 0.4 and 100 μM CD3ϵ peptide (200 μM in the case of the APVA variant peptide). […]

[2] = test system: Zap70 phosphorylation in anti-CD3–stimulated T cells; details: ref [10]; cited from earlier work
Procedure: It was shown previously that Nck contributes to TCR signaling after weak stimulation of T cells. […] To obtain a strong dependence of TCR signaling on Nck, different stimulation conditions with low concentrations of anti-CD3 in the absence of co-stimulatory signals were assessed in the presence of AX-024 (Fig. 4). […] At the outset of this study, further development of AX-024, published as a PPI of the Nck1/CD3ϵ interaction ([10]), was anticipated. Unfortunately, we could not replicate all biological effects attributed to this compound. […] Whereas there is an inhibitory effect of AX-024 on T cell proli ...

[3] = test system: monomeric Nck1-SH3.1; assay: Ligand-observed NMR with monomeric Nck1-SH3.1; assay type: binding, human; details: 50 μM ligand, 10 μM monomeric Nck1-SH3.1 (residues 1–61), pH 6.5, 150 mM NaCl, 27 °C
Procedure: NMR spectra were recorded on a Bruker 600-MHz Avance NEO spectrometer equipped with a cryogenic QCI probe head at 27 °C in 25 mM […], 150 mM NaCl. The Topspin 4.0 software (Bruker, Fällanden) was used for spectrometer operation and data processing. For ^1H ligand-observed measurements, a relaxation filtered pulse sequence utilizing a spinlock of 50 ms was applied. 1D spectra were acquired with 128 scans, a sweep width of 26 ppm, and an acquisition time of 2 s. 2D ^1H-^15N HSQC spectra with natural ^15N isotope abundance were recorded over 72 h with a spectral width of 16 ppm and 35 ppm in the proton and nitrogen dimensions, respectively, with 256 increments (complex) and 1000 scans per increment. A relaxation delay of 1 s was used between scans. For the DOSY measurements (reviewed in Ref. [51]), the Bruker pulse sequence ledbpgp2s with a diffusion delay of 50 ms and a gradient length of 600 μs was used. The gradient strength was varied from 5 to 95% to record 16 increments of 512 scans with a sweep width of 18 ppm and a relaxation delay of 1 s.
Samples for ligand-observed measurements were prepared in 25 mM sodium phosphate buffer, pH 6.5, 150 mM NaCl. One sample contained 50 μM AX-024, and the other contained 50 μM CD3ϵ peptide.

[4] = test system: CD4 T cell proliferation; assay: CD4 T cell proliferation by CFSE dilution, anti-CD3 stimulation; assay type: cell-based, human; details: human CD3+ T cells (n = 4 donors), CFSE dilution gated on CD4, 0.2 μg·ml^−1 plate-bound anti-CD3 (OKT3), no co-stimulation, 4 days, 0.2% DMSO
Procedure: Figure 2. […] CD4 T cell proliferation was assessed upon stimulation with anti-CD3ϵ by CFSE dilution as a measure for cellular proliferation, analyzed on day 4. For rapamycin and AX-024–treated cells, the dashed line indicates control proliferation at a DMSO concentration of 0.2%. For CD3ϵ-derived peptides 11Rwt, 11R085, and 11Rscr, the dashed line indicates control proliferation at 0.3% DMSO, 0.3% PBS. 11Rwt has sequence R11-G3-[…], 11R085 R11-G3-Q(dK)[…], and 11Rscr R11-G3-[…](dK)PQP. A polyarginine tag is used to enable cell penetration of the peptides ([10]). The gray boxes indicate concentrations of compound leading to decreased cell viability. These values should be disregarded. Binding of peptides 11Rwt and 11R085, but not 11Rscr, to Nck-SH3.1 was confirmed by NMR spectroscopy (Fig. S1). Asterisks, p < 0.05 as determined by a repeated-measure one-way analysis of variance with Holm–Sidak's multiple-comparison test to DMSO/PBS. Dotted lines, mean DMSO/PBS values. Error bars, S.D.
Fresh human peripheral blood mononuclear cells (PBMCs) from healthy donors (n = 4) were prepared from buffy coats. CD3^+ T cells were isolated by immunomagnetic separation (negative selection, StemCell, lot 18A87710), carboxyfluorescein succinimidyl ester (CFSE)-labeled, resuspended in StemCell Immunocult^TM-XF T cell expansion medium, and treated with compounds or vehicle for 2 h at room temperature. The isolated CD3^+ T cells were stained for CD3, CD4, and CD8, and their purity was assessed by flow cytometry. Cells were then cultured in a 96-well flat-bottomed plate (10^5 cells/well), precoated for 1 h at 37 °C with 0.2 μg·ml^−1 plate-bound anti-CD3 (clone OKT3, BioLegend). […] Cells were cultured in the presence of AX-024, rapamycin, peptide 11Rwt, peptide 11R85, peptide 11Rscr (derived from Ref. [11]; see below for sequences), or vehicle for 4 days. At the end of culture, cells were stained for viability, and CFSE dilution was assessed by flow cytometry (with gating on CD4 versus CD8).

## COc1ccc2c(c1)C(c1ccc(F)cc1)=C(CN1CCCC1)CO2.Cl [AX-024, 1-((4-(4-fluorophenyl)-6-methoxy-2H-chromen-3-yl)methyl)pyrrolidine hydrochloride]
[1]
  effect on binding of CD3ϵ peptide to Nck1-SH3.1 (competition): unaffected by AX-024; also recorded: failed to show an effect on binding of CD3ϵ to immobilized Nck1-SH3.1
[2]
  reduction of Zap70 phosphorylation: reduces Zap70 phosphorylation to the same level as in unstimulated T cells; also recorded: reduces ZAP70 phosphorylation in anti-CD3–stimulated T cells to levels comparable with unstimulated T cells
[3]
  ligand-observed NMR, spectral change / line broadening: no binding of AX-024 was detected by NMR; also recorded: do not show any spectral changes
[4]
  inhibition of T cell proliferation: inhibited T cell proliferation
